Measurements from US8344022B2, “Vaginal health products” (Kimberly-Clark Worldwide, Inc., priority 2004, dated 2013).
Several values for one entry are separate records, joined by “and”; a condition that tells them apart may be missing. Equal values may be shown once. Entries after “also recorded” stand apart in the source; their conditions may differ.

How the values were obtained:
[1] = test system: ME-180 cells; experiment: ME-180 cell growth (cell counting) with vitamin E or vitamin A derivatives; format: cell-based, human; conditions: for effect on ME-180 cell growth: 1 nM, 10 nM and 100 nM; for ME-180 cell growth vs negative control (FIG. 2): 1 μM or 10 μM, two days; for ME-180 cell growth: three days
Method: Cell Culture. Human cervical epithelial cells (ME-180, ATCC) were propagated in culture at 37° C. using 5% CO2 in McCoy's 5A media (Invitrogen) with 10% heat-inactivated fetal bovine serum (Invitrogen). Vitamin E was purchased from ICN Biomedicals. Vitamin E stock solutions were made up in absolute ethanol.
ME-180 cells were incubated with vitamin E at various concentrations for three days. At 10 μM vitamin E, ME-180 cell growth was inhibited (data not shown). However, this may be due to the presence of a larger concentration of ethanol (used as a solvent for vitamin E) in the media. […] At 1 μM vitamin E, ME-180 cell growth was enhanced more than the corresponding negative control. At 100 nM vitamin E, cell growth was not effected in comparison to the negative control. Therefore, a concentration of 1 μM vitamin E was used to measure changes in RNA expression over a 24 hour period.
Cell Proliferation of ME-180 Cells. ME-180 cells were incubated with vitamin A derivatives for a period of up to 3 days. ME-180 cells were counted on each day.

[2] = test system: P2Y2 receptor gene; experiment: RT-PCR expression assay in ME-180 cells: P2Y2; format: cell-based, human
Method: (§1) RNA Extraction from ME-180 cells. ME-180 cells were plated at 2×10^5 cells per T75 flask (15 mL total volume) and were allowed to propagate for four days. On day four, the media was removed. Fifteen mL of McCoy's SA media with or without 10% FBS containing 0 or 1 μM vitamin E were added to ME-180 cells in duplicate. ME-180 cells were incubated with these solutions for 24 hours. The media was removed, and 1500 μL of lysis buffer was added to the flasks. The cells were scraped off of the flask with a cell scraper. The RNA was isolated using the Ambion RNAqueous kit according to the manufacturer's instructions. Precipitated RNA was resuspended in DEPC-treated water with 1 μL of RNase inhibitor.
(§2) Reverse Transcription of RNA. Approximately 7 μL of RNA was incubated with 3 μL of primer at 80° C. for 10 minutes then immediately placed on ice. A master mix containing 4 μL DEPC water, 4 μL 5× reaction buffer, 1 μL dNTPs, 1 μL of RNase inhibitor, and 1 μL of reverse transcriptase was made for the reactions. Ten μL of master mix was added to the RNA/primer solution and placed at 42° C. for 2 hours. The resulting cDNA was incubated with 3.5 μL of NaOH solution at 70° C. for 10 minutes to hydrolyze the remaining RNA. Five μL of 0.5M Tris/EDTA was added to neutralize the solution. To precipitate the cDNA, 125 μL of 3M NH4OAc, 5 μL of linear polyacrylamide, and 700 μL of absolute ethanol were added. The solutions were vortexed and placed at −20° C. overnight. Samples were centrifuged at 14000 rpm at 4° C. for 30 minutes. The ethanol was removed, and the samples were allowed to dry for 10 minutes. The cDNA was resuspended in 10-12 μL of PCR grade water.
Polymerase Chain Reaction (PCR). A master mix using the Advantage 2 PCR kit (Ambion) was made for the PCR reactions containing 37-38 μL of PCR grade water, 5 μL of 10×PCR buffer, 1 μL of dNTPs, 1 μL of β-actin primers (10 μM, optional control), and 2 μL of test primers (10 μM, P2Y2, or Mucin-4 (MUC-4)). Two microliters of cDNA and […] of DNA polymerase were added. […]

[3] = test system: mucin-4 (MUC-4); experiment: RT-PCR expression assay in ME-180 cells: mucin-4; format: cell-based, human; conditions: for MUC-4 expression: 100 nM vitamin A; for mucin-4 expression: 1 μM vitamin E, 24 hours
Method: as §1, §2
Polymerase Chain Reaction (PCR). A master mix using the Advantage 2 PCR kit (Ambion) was made for the PCR reactions containing 37-38 μL of PCR grade water, 5 μL of 10×PCR buffer, 1 μL of dNTPs, 1 μL of β-actin primers (10 μM, optional control), and 2 μL of test primers (10 μM, P2Y2, or Mucin-4 (MUC-4)). Two microliters of cDNA and […] of DNA polymerase were added. Cycling conditions were as follows: 5 min at 95° C.; 25-30 cycles (30 sec at 95° C., 1 min at 65° C., 3 min at 68° C.); 5 min at 68° C.
RNA was isolated (as described above) from ME-180 cervical cells treated with 0 nM or 100 nm vitamin A in the absence of serum. The RNA was reverse transcribed to form cDNA, and PCR techniques (as described above) were used to determine the effect of vitamin A on the expression of mucin-4 (MUC-4).

[4] = test system: estrogen receptor alpha (ER-α); experiment: RT-PCR expression assay in ME-180 cells: ER-α; format: cell-based, human; conditions: 100 nM vitamin A, no serum, 4, 8 and 16 hours
Method: Cell samples exposed to vitamin A in the absence of serum were also tested for expression of other genes that may also affect atrophic vaginitis. Using primers designed to amplify the estrogen receptor alpha (ER-α) gene, PCR was performed using the RNA samples from cells starved of serum. The ER-α product (650 bp) was visible in the control (FIG. 4, lane 2), where the template was cDNA from ME-180 cells cultured in the presence of serum. […] However, in the samples that were exposed to 100 nM vitamin A but no serum for 4, 8, and 16 hours, the […] gene was expressed (Lanes 4-6, respectively). […] Increasing the amount of estrogen receptors on epithelial cells in the genital tract may increase the probability that a receptor will be activated by estrogen.

[5] = test system: vascular endothelial growth factor (VEGF); experiment: RT-PCR expression assay in ME-180 cells: VEGF; format: cell-based, human
[6] = test system: DTR; experiment: RT-PCR expression assay in ME-180 cells: DTR; format: cell-based, human; conditions: 1 μM vitamin E, 24 hours, absence of serum
[7] = test system: human skin keratinocytes; experiment: Keratinocyte proliferation, 96-well Cell Titer 96 assay; format: cell-based; conditions: 1×10^−4 to 1×10^−6 M
Method: The proliferative response of these human skin keratinocytes to the test compounds was measured in a 96-well assay system using keratinocyte basal medium (KBM, Clonetics, catalog number CC-3103) as a control. […] In addition, 100 μl of vehicle KBM was added to 5 wells as control. […] The spectrophotometric absorbance of each well was read at 490 nm.

[8] = test system: collagen production in human skin fibroblast cell line; experiment: Collagen production by human skin fibroblasts (Takara EIA MK101); format: cell-based; conditions: 1×10^−4 to 1×10^−6 M
Method: The cells were first grown in a 96-well assay system using Dulbecco's Modified Eagle's Medium (DMEM) with 10% fetal bovine serum (FBS) both purchased from Sigma Chemical Co, St. Louis, Mo. Serum-free DMEM was used as a control.
The assay was done by using the recommended 20 ul of the supernatant from each well of the 96-well plate. Standard buffer and stop solutions were freshly prepared before running the assay. 100 ul of antibody-POD conjugate solution (supplied with the kit) was added into the wells using pre antibody coated 96 well plate (supplied with the kit). 20 ul of standard and test solutions (from the other 96-well plate containing fibroblasts) were added to appropriate wells. Plate was mixed gently, sealed and incubated for three hrs. at 37° C.
After incubation each well was washed carefully four times with PBS buffer (400 ul). All the wells were completely emptied at the end of washing from any liquid.
100 ul of substrate solution (hydrogen peroxide and tetramethylbenzidine in a buffer solution, supplied with the kit) was added to each well and the plate was incubated for 15 minutes. At this point 100 ul of stop solution (freshly prepared 1N H2SO4) was added to each well in the same order as substrate. The plate was gently mixed and absorbance was read at 450 nm.

[9] = test system: fibronectin production in human skin fibroblast cell line; experiment: Fibronectin production by human skin fibroblasts (Takara EIA MK115); format: cell-based; conditions: all concentrations tested, vs control
Method: The cells were first grown in a 96-well assay system using Dulbecco's Modified Eagle's Medium (DMEM) with 10% fetal bovine serum (FBS) both purchased from Sigma Chemical Co, St. Louis, Mo. Serum-free DMEM was used as a control. […] The fibronectin assay was performed using the recommended 100 μl of the supernatant from each well of the 96-well plate. Standard buffer and stop solutions were freshly prepared before running the assay. A pre-antibody-coated 96 well plate (provided with the kit) was used to transfer the test samples and control. The plate was mixed, sealed and incubated for 1 hour at 37° C. All the wells were washed after removing sample solutions, 3 times (300 μl) with washing buffer. 100 ul of antibody-POD conjugate solution was added into the wells. Plate was mixed, sealed and incubated for one hour at 37° C. Solutions were removed and the wells were washed 3 times with washing buffer. All the wells were completely emptied at the end of washing from any liquid. 100 μl of substrate solution (hydrogen peroxide and tetramethylbenzidine in a buffered solution) was added to each well and the plate was incubated at room temperature for 15 minutes. 100 μl of stop solution (freshly prepared 1N H2SO4) was added to each well in the same order as substrate. The plate was gently mixed and absorbance was read at 450 nm.

[10] = test system: stratum corneum; experiment: Dansyl chloride cell renewal study in healthy female volunteers; format: in vivo, human
From the text: The stratum corneum renewal time is the time taken for the whole thickness of the stratum corneum to be exfoliated and replaced by new cells from the dividing epidermis. This renewal time is a fundamental indicator of skin health. […] See Jansen L H, Hojyo-Tomoko M T, Kligman A M., Improved fluorescence staining technique for estimating turnover of the human stratum corneum, Br J Dermatol., 90, 9-12, 1974; Ridge B D, Batt M D, Palmer H E, Jarrett A, The dansyl chloride technique for stratum corneum renewal as an indicator of changes in epidermal mitotic activity following topical treatment., Br J Dermatol., 118, 167-74, 1988; Grove G L, Kligman A M, Age-associated changes in human epidermal cell renewal., J Geron., 38, 137-142, 1983. The time required for the dye to disappear is therefore an indication of the turnover time of the stratum corneum. Therefore, any differences in the time required for the dye to disappear from treated and non-treated sites can be considered to be an expression of that product's ability to enhance epidermal renewal.
A dansyl chloride cell renewal study was conducted in healthy female volunteers ranging from 43-64 years of age. The study consisted of a two-week treatment period during which time the products were applied topically twice daily, including on weekend days, to the test sites. The area of application was designated, approximately 5 cm×10 cm on the upper inner arm. The other arm served as a control with no product application. […] Eight females received jasmonic acid and seven females received gibberellic acid.
The time required for a marker dye to disappear was used as the measure of cell renewal rate.

[11] = 1 μM vitamin E, 24 hours, absence of serum

For `CC1=C(/C=C/C(C)=C/C=C/C(C)=C/C(=O)O)C(C)(C)CCC1` [trans-retinoic acid], the “toxicity (conclusion of the ME-180 experiments)” value [1] was “nontoxic”, the “ME-180 cell growth compared with other agents or unexposed control” value ([1]; 1 nM to 100 nM experiment) was “growing slightly faster” and the “effect on ME-180 cell growth” value [1] was “little effect”. The “ME-180 cell growth vs negative control (FIG. 2)” value [1] was “more cells were present”, the P2Y2 expression ([2]; 100 nM vitamin A, in the presence and in the absence of serum) was “increase” and the MUC-4 expression ([3]; absence of serum, 4 hours or 8 hours) was “detectable”. The MUC-4 expression ([3]; absence of serum, 16 hours) was “decreases but is still detectable”, the ER-α expression [4] was “expressed; also recorded: increase” and the VEGF expression ([5]; 100 nM vitamin A) was “increased”.

With vitamin E the DTR expression [6] was “no observable difference”, the ME-180 cell growth ([1]; 100 nM vitamin E, vs negative control) was “not effected” and the ME-180 cell growth ([1]; 1 μM vitamin E, vs negative control) was “enhanced”. The ME-180 cell growth ([1]; 10 μM vitamin E, ethanol control also showed no growth) was “inhibited”, the P2Y2 expression [2, 11] was “no observable difference” and the P2Y2 expression ([2]; 1 μM vitamin E, 24 hours, presence of serum) was “no significant changes”. The mucin-4 expression ([3]; absence of serum) was “increases; also recorded: significantly increased”, the mucin-4 expression ([3]; presence of serum) was “no significant changes” and the VEGF expression [5, 11] was “no observable difference”.

`C=C1C[C@]23C[C@@]1(O)CC[C@H]2[C@@]12C=C[C@H](O)[C@@](C)(C(=O)O1)[C@H]2[C@@H]3C(=O)O` [gibberellic acid, Gibberellin A3] was tested, and the “cell proliferating activity on human keratinocytes (summary in words)” value [7] was “strong cell proliferating activity”, the “collagen production in human fibroblasts (summary in words)” value [8] was “stimulate collagen production” and the “fibronectin production in human fibroblasts (summary in words)” value [9] was “effective”. The “skin irritation or redness” value ([10]; 0.25% topical twice daily, two weeks, all study volunteers) was “no visible sign of any skin irritation or redness”, the “RENEWAL, time for cell renewal of treated skin” value ([10]; individual patients (one value per patient #), 0.25% in hyaluronic acid (0.5% aqueous solution), topical twice daily, upper inner arm, listed as GA) was 14 Days (2×) and 12 Days (2×) and 19 Days and 17 Days and 21 Days and the “faster cell renewal rate over control” value ([10]; overall, 0.25% topical, vs untreated arm) was 20%. For the same compound, the “reduction in time required for cell renewal vs untreated control” value ([10]; vs volunteers' control without treatment) was “about 20%”.

In the case of `CC1=C(/C=C/C(C)=C\C=C\C(C)=C\C(=O)O)C(C)(C)CCC1` [9-cis-retinoic acid], the “effect on ME-180 cell growth” value [1] is reported as “little effect”.

With `CC1=C(/C=C/C(C)=C/C=C/C(C)=C\C(=O)O)C(C)(C)CCC1` [13-cis-retinoic acid] the “effect on ME-180 cell growth” value [1] was “little effect”, the “ME-180 cell growth vs negative control (FIG. 2)” value [1] was “did not grow as well as the negative control” and the “toxicity to ME-180 cells” value ([1]; micromolar concentrations) was “toxic”.
